Measured values taken from patent US20230279020A9, “CARM1 INHIBITORS AND USES THEREOF” (Epizyme, Inc., priority 2013, published 2023).

These compounds were tested against Human CARM1 (PRMT4) (Homo sapiens (Human), UniProt Q86X55) (assay: CARM1 enzyme assay on peptide substrate (3H-SAM Flashplate)). Conditions: Biochemical potencies, classification codes; read-out: Biochem IC50.
Chain of Human CARM1 (PRMT4) (Q86X55 other isoform, or with tags, fused parts or gaps isoform Q86X55-1): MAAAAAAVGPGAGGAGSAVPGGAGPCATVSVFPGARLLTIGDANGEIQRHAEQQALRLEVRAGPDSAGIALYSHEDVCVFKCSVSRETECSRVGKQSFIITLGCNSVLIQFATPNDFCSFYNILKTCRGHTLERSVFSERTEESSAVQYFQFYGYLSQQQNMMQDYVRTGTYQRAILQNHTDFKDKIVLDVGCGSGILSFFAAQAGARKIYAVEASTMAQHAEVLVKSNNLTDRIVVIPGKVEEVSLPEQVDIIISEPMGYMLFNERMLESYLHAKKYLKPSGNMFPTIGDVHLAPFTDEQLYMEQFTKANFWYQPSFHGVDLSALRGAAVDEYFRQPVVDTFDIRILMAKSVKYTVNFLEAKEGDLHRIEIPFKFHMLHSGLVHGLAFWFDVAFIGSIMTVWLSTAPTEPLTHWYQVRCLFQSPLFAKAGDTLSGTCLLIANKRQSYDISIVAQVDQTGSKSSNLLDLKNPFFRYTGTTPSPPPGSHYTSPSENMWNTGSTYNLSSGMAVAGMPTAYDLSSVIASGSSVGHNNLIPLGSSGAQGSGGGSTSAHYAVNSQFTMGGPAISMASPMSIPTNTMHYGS

Row | IC50 [nM] | SMILES
1 | < 100 | CNCC(O)COc1cccc(-c2nc(-c3c(C)noc3C)c(C)c(N3CCN(C(=O)OCCF)CC3)n2)c1 (centres unmarked) [Example 121-1a]
2 | < 100 | CNC[C@@H](O)COc1ccc(Cl)c(-c2nc(-c3c(C)noc3C)c(C)c(N3CC4(CCCO4)C3)n2)c1 [Example 121-3]
3 | < 100 | CNC[C@@H](O)COc1ccc(Cl)c(-c2nc(-c3c(C)noc3C)c(C)c(N3CCc4nn(C)cc4C3)n2)c1 [Example 122-3]
4 | < 100 | CNCC(O)COc1cccc(-c2nc(-c3c(C)noc3C)c(C)c(N3CCO[C@H](CNC)C3)n2)c1 (some centres unmarked) [Example 124-1a]
5 | < 100 | CNCC(O)COc1ccc(C)c(-c2nc(NC3CCOC(C)C3)c(C)c(-c3c(C)noc3C)n2)c1 (centres unmarked) [Example 124-3]
6 | < 100 | CNCC(O)COc1cccc(-c2nc(-c3c(C)noc3C)c(C)c(N3CCO[C@H](CO)C3)n2)c1 (some centres unmarked) [Example 125-1a]
7 | < 100 | CNCC(O)COc1ccc(C)c(-c2nc(NC3CCN(C(=O)OC)CC3)c(C)c(-c3c(C)noc3C)n2)c1 (centres unmarked) [Example 125-3]
8 | < 100 | CNCC(O)COc1cccc(-c2nc(-c3c(C)noc3C)c(C)c(N3CCO[C@H](CN(C)S(C)(=O)=O)C3)n2)c1 (some centres unmarked) [Example 126-1a]
9 | < 100 | CNC[C@@H](O)COc1ccc(Cl)c(-c2nc(OC[C@@H]3CCOC3)c(C)c(-c3c(C)noc3C)n2)c1 [Example 126-3]
10 | < 100 | CNCC(O)COc1cccc(-c2nc(-c3c(C)noc3C)c(C)c(N3CCO[C@H](CN(C)C(=O)OC)C3)n2)c1 (some centres unmarked) [Example 127-1a]
11 | < 100 | CNC[C@@H](O)COc1ccc(Cl)c(-c2nc(NC3CCOCC3)c(C)c(-c3c(C)noc3C)n2)c1 [Example 127-3]
12 | < 100 | CNC[C@@H](O)COc1ccc(Cl)c(-c2nc(N[C@H]3CCO[C@@H](C)C3)c(C)c(-c3c(C)noc3C)n2)c1 [Example 128-3]
13 | < 100 | CCOC(=O)N1CC[C@@H](Nc2nc(-c3cc(OC[C@H](O)CNC)ccc3Cl)nc(-c3c(C)noc3C)c2Cl)C1 [Example 129-3]
14 | < 100 | CNC[C@@H](O)COc1ccc(Cl)c(-c2nc(NC[C@H]3CCCO3)c(C)c(-c3c(C)noc3C)n2)c1 [Example 130-3]
15 | < 100 | CNCC(O)COc1cccc(-c2nc(-c3c(C)noc3C)cc(N3CCNC(C(F)(F)F)C3)n2)c1 (centres unmarked) [Example 131-1a]
16 | < 100 | CNC[C@@H](O)COc1ccc(Cl)c(-c2nc(NC[C@@H]3CCCO3)c(C)c(-c3c(C)noc3C)n2)c1 [Example 131-3]
17 | < 100 | CNCC(O)COc1cccc(-c2nc(-c3c(C)noc3C)cc(N3CCN(CC(F)(F)F)CC3)n2)c1 (centres unmarked) [Example 132-1a]
18 | < 100 | CNC[C@@H](O)COc1ccc(Cl)c(-c2nc(N[C@@H]3CCO[C@H](C)C3)c(C)c(-c3c(C)noc3C)n2)c1 [Example 132-3]
19 | < 100 | CNCC(O)COc1cccc(-c2nc(-c3c(C)noc3C)cc(N3CCN(C(=O)C4CC4)CC3)n2)c1 (centres unmarked) [Example 133-1a]
20 | < 100 | CCOC(=O)N1CCC[C@@H]1COc1nc(-c2cc(OC[C@H](O)CNC)ccc2Cl)nc(-c2c(C)noc2C)c1C [Example 133-3]
21 | < 100 | CNCC(O)COc1cccc(-c2nc(-c3c(C)noc3C)c(C)c(N3CCN(C(=O)OCCOC)CC3)n2)c1 (centres unmarked) [Example 134-1a]
22 | < 100 | CNC[C@@H](O)COc1ccc(Cl)c(-c2nc(NC[C@H]3COCCN3C(=O)OC(C)C)c(C)c(-c3c(C)noc3C)n2)c1 [Example 134-3]

Row | IC50 [nM] | SMILES
23 | < 100 | CNCC(O)COc1cccc(-c2nc(N[C@H]3CC[C@H](O)C3)c(C)c(-c3c(C)noc3C)n2)c1 (some centres unmarked) [Example 135-1a]
24 | < 100 | CNC[C@@H](O)COc1ccc(Cl)c(-c2nc(N[C@@H]3CCN(C(=O)OC)[C@H](C)C3)c(C)c(-c3c(C)noc3C)n2)c1 [Example 135-3]
25 | < 100 | CNCC(O)COc1cc(NC)cc(-c2nc(NC3CCOCC3)c(C)c(-c3c(C)noc3C)n2)c1 (centres unmarked) [Example 136-1a]
26 | < 100 | CCOC(=O)N1CCC[C@@H]1CCNc1nc(-c2cc(OC[C@H](O)CNC)ccc2Cl)nc(-c2c(C)noc2C)c1C [Example 136-3]
27 | < 100 | CNCC(O)COc1ccc(Cl)c(-c2nc(NC3(C)CCOCC3)c(Cl)c(-c3c(C)noc3C)n2)c1 (centres unmarked) [Example 137-1a]
28 | < 100 | CCOC(=O)N1CCC[C@H]1CCNc1nc(-c2cc(OC[C@H](O)CNC)ccc2Cl)nc(-c2c(C)noc2C)c1C [Example 137-3]
29 | < 100 | CNC[C@@H](O)COc1ccc(Cl)c(-c2nc(-c3c(C)noc3C)c(C)c(N3CCC4(CCN(C5CC5)C4)C3)n2)c1 (some centres unmarked) [Example 138-3]
30 | < 100 | CNCC(O)COc1cccc(-c2nc(-c3c(C)noc3C)cc(N3CCN(CCOC)CC3)n2)c1 (centres unmarked) [Example 139-1a]
31 | < 100 | CNC[C@@H](O)COc1ccc(Cl)c(-c2nc(N[C@@H]3CCN(C4CC4)[C@H](C)C3)c(C)c(-c3c(C)noc3C)n2)c1 [Example 139-3]
32 | < 100 | CNCC(O)COc1cccc(-c2nc(NCC3(N(C)C)CCOCC3)c(C)c(-c3c(C)noc3C)n2)c1 (centres unmarked) [Example 140-1a]
33 | < 100 | CNC[C@@H](O)COc1ccc(Cl)c(-c2nc(-c3c(C)noc3C)c(C)c(N3Cc4cnn(C)c4C3)n2)c1 [Example 140-3]
34 | < 100 | CCC1(CNc2nc(-c3cccc(OCC(O)CNC)c3)nc(-c3c(C)noc3C)c2C)CCOCC1 (centres unmarked) [Example 141-1a]
35 | < 100 | CNC[C@@H](O)COc1ccc(Cl)c(-c2nc(-c3c(C)noc3C)c(C)c(N3CCc4nc(C)sc4C3)n2)c1 [Example 141-3]
36 | < 100 | CNCC(O)COc1cccc(-c2nc(NCC3CCOCC3)c(Cl)c(-c3c(C)noc3C)n2)c1 (centres unmarked) [Example 142-1a]
37 | < 100 | CNC[C@@H](O)COc1ccc(Cl)c(-c2nc(-c3c(C)noc3C)c(C)c(N3Cc4nccnc4C3)n2)c1 [Example 142-3]
38 | < 100 | CNCC(O)COc1cccc(-c2nc(NCC3CCOCC3)c(F)c(-c3c(C)noc3C)n2)c1 (centres unmarked) [Example 143-1a]
39 | < 100 | CNC[C@@H](O)COc1ccc(Cl)c(-c2nc(N[C@H]3C[C@H](OC)C3)c(C)c(-c3c(C)noc3C)n2)c1 [Example 143-3]
40 | < 100 | CNCC(O)COc1cccc(-c2nc(-c3c(C)noc3C)cc(N3CCN(CC(F)(F)F)[C@H](C)C3)n2)c1 (some centres unmarked) [Example 144-1a]
41 | < 100 | CNC[C@@H](O)COc1ccc(Cl)c(-c2nc(N[C@H]3C[C@@H](OC)C3)c(C)c(-c3c(C)noc3C)n2)c1 [Example 144-3]
42 | < 100 | CNCC(O)COc1cccc(-c2nc(-c3c(C)noc3C)cc(N3CCN(CCF)[C@H](C)C3)n2)c1 (some centres unmarked) [Example 145-1a]
43 | < 100 | CNCC(O)COc1cccc(-c2nc(NC3CCOCC3)c(C)c(-c3c(C)noc3CO)n2)c1 (centres unmarked) [Example 145-3]
44 | < 100 | CNCC(O)COc1cccc(-c2nc(-c3c(C)noc3C)cc(N3CCN(C(=O)N(C)C)[C@H](C)C3)n2)c1 (some centres unmarked) [Example 146-1a]

Row | IC50 [nM] | SMILES
45 | < 100 | CNC[C@@H](O)COc1ccc(Cl)c(-c2nc(NC3CC4(C3)CN(C(=O)OC)C4)c(C)c(-c3c(C)noc3C)n2)c1 [Example 146-3]
46 | < 100 | CNCC(O)COc1cccc(-c2nc(-c3c(C)noc3C)cc(N3CCN(S(C)(=O)=O)[C@H](C)C3)n2)c1 (some centres unmarked) [Example 147-1a]
47 | < 100 | CNC[C@@H](O)COc1ccc(Cl)c(-c2nc(N[C@H]3CCN(C)C[C@H]3F)c(C)c(-c3c(C)noc3C)n2)c1 [Example 147-3]
48 | < 100 | CNCC(O)COc1cccc(-c2nc(-c3c(C)noc3C)c(C)c(N3CCO[C@@H](CN(C)C)C3)n2)c1 (some centres unmarked) [Example 148-1a]
49 | < 100 | CNC[C@@H](O)COc1ccc(Cl)c(-c2nc(N[C@H]3CO[C@@H](C)C3)c(Cl)c(-c3c(C)noc3C)n2)c1 [Example 148-3]
50 | < 100 | CNCC(O)COc1cccc(-c2nc(-c3c(C)noc3C)c(C)c(N3CCO[C@@H](CN(C)C(=O)OC)C3)n2)c1 (some centres unmarked) [Example 149-1a]
51 | < 100 | CNC[C@@H](O)COc1ccc(Cl)c(-c2nc(N[C@H]3CCO[C@@H](C)C3)c(Cl)c(-c3c(C)noc3C)n2)c1 [Example 149-3]
52 | < 100 | CNCC(O)COc1cccc(-c2nc(-c3c(C)noc3C)c(C)c(N3CCO[C@@H](CN(C)S(C)(=O)=O)C3)n2)c1 (some centres unmarked) [Example 150-1a]
53 | < 100 | CCOC(=O)N1CC[C@H](Nc2nc(-c3cc(OC[C@H](O)CNC)ccc3Cl)nc(-c3c(C)noc3C)c2C)C1 [Example 150-3]
54 | < 100 | CNCC(O)COc1cccc(-c2nc(-c3c(C)noc3C)c(C)c(N3CCO[C@H](CN(C)C)C3)n2)c1 (some centres unmarked) [Example 151-1a]
55 | < 100 | CCOC(=O)N1CC[C@H](Nc2nc(-c3cc(OC[C@H](O)CNC)ccc3Cl)nc(-c3c(C)noc3C)c2Cl)C1 [Example 151-3]
56 | < 100 | CC[C@@H]1CN(c2nc(-c3cccc(OCC(O)CNC)c3)nc(-c3c(C)noc3C)c2C)CCN1S(=O)(=O)CC (some centres unmarked) [Example 152-1a]
57 | < 100 | CNC[C@@H](O)COc1ccc(Cl)c(-c2nc(N[C@H]3CO[C@@H](C)C3)c(C)c(-c3c(C)noc3C)n2)c1 [Example 152-3]
58 | < 100 | CC[C@@H]1CN(c2nc(-c3cccc(OCC(O)CNC)c3)nc(-c3c(C)noc3C)c2C)CCN1S(C)(=O)=O (some centres unmarked) [Example 153-1a]
59 | < 100 | CCOC(=O)N1CCCC[C@@H]1CNc1nc(-c2cc(OC[C@H](O)CNC)ccc2Cl)nc(-c2c(C)noc2C)c1Cl [Example 153-3]
60 | < 100 | CC[C@H]1CN(c2nc(-c3cccc(OCC(O)CNC)c3)nc(-c3c(C)noc3C)c2C)CCN1S(=O)(=O)CC (some centres unmarked) [Example 154-1a]
61 | < 100 | CCOC(=O)N1CCCC[C@@H]1CNc1nc(-c2cc(OC[C@H](O)CNC)ccc2Cl)nc(-c2c(C)noc2C)c1C [Example 154-3]
62 | < 100 | CC[C@H]1CN(c2nc(-c3cccc(OCC(O)CNC)c3)nc(-c3c(C)noc3C)c2C)CCN1S(C)(=O)=O (some centres unmarked) [Example 155-1a]
63 | < 100 | CNC[C@@H](O)COc1ccc(Cl)c(-c2nc(N[C@@H]3CCO[C@H](C)C3)c(Cl)c(-c3c(C)noc3C)n2)c1 [Example 155-3]
64 | < 100 | CNC[C@@H](O)COc1cccc(-c2nc(-c3c(C)noc3C)c(C)c(-c3cn(S(C)(=O)=O)c4ncncc34)n2)c1 [Example 156-1a]

Row | SMILES | IC50 [nM]
65 | CNC[C@H](O)COc1ccc(Cl)c(-c2nc(-c3c(C)noc3C)c(C)c(N3CCC4(CCN(C5CC5)C4)C3)n2)c1 (some centres unmarked) [Example 138-1a] | < 100
